For one data set, the target named is EIN^sc (Streptomyces coelicolor, UniProt Q9KZP1). Briefly: biochemical. Format: binding. As for the experimental part: Spectra were collected at 25 °C on a Cary spectrofluorometer (Agilent, Madrid, Spain), with a Peltier temperature controller. The samples were prepared the day before and left overnight at 5 °C. Before measurements, the samples were incubated for 1 h at 25 °C. A quartz cell with a 1 cm path length (Hellma, Kruibeke, Belgium) was used. In all the experiments, the slit widths were equal to 5 nm for both the excitation and emission lights. Protein samples were excited at either 280 or 295 nm. The experiments were performed between 300 and 400 nm. The signal was acquired for 1 s, and the increment of wavelength was set to 1 nm. Appropriate blank corrections were made in all spectra. For the binding experiments, 3 µM of either protein (Rsd^ec or EIN^sc) and 15 µM of the corresponding peptide were mixed. The experiments in aqueous solution were acquired in Tris buffer (50 mM, pH 7.0).
EIN^sc, sequence (Q9KZP1 1-230): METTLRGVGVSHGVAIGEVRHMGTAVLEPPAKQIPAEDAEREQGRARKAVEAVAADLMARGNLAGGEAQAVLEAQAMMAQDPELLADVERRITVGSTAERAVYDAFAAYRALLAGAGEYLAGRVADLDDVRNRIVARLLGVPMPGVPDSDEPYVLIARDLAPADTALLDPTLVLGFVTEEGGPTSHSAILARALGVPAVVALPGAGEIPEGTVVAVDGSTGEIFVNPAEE
For the titration between either of the two proteins (Rsd^ec or EIN^sc) and the corresponding peptide, increasing amounts of the latter, in a concentration range of 0 to 30 µM, were added to a solution with a fixed concentration of each protein (3 µM). The experimental set-up was identical to that described above, including preparation of the samples the day before and their storage overnight at 5 °C. Before measurements, the samples were incubated for 1 h at 25 °C. The fluorescence of a blank solution containing only the corresponding peptide was subtracted for each data point. […] The Kd was determined by following the fluorescence at selected wavelengths and fitting experimental data to Equation (1). […] At all used concentrations, the fluorescence was corrected by the inner-filter effects.

Data set [1] relates to Staphylococcus aureus CECT59. The data set is classed as cell-based. The conditions noted are these: S. aureus CECT59, two-fold broth microdilution (CLSI), MH broth, 24 h, 37 °C; triplicate (sd = 0); highest concentration tested 400 µM. How it is done:
The CECT59 strain of the Gram-positive bacteria Staphylococcus aureus from the Spanish Type Culture Collection (Colección Española de Cultivos Tipo, CECT, Universitat de Valencia, Spain) was used for determining its sensitivity to the HPr peptides studied in this work. The MIC for each peptide was determined by the two-fold broth microdilution method according to the Clinical and Laboratory Standards Institute (CLSI) guidelines, with some modifications as previously described. For this testing procedure, a bacteria colony previously grown in MH agar plates was isolated and incubated in MH broth at 37 °C overnight to prepare the bacteria inoculum to be used in each assay. Then, the bacteria suspensions were adjusted to a 100× dilution of an 0.5 McFarland turbidity standard in MH broth and incubated with different concentrations of each peptide in round-bottom 96-well polystyrene plates (Deltalab S.L., Rubí, Spain) (50 μL/well) for 24 h at 37 °C. The peptide concentrations employed comprised two-fold dilutions starting at either 120, 160, or 400 µM, depending on the experiment. […] All assays were performed in triplicate.
In general terms: Broth dilution looks for growth in wells or tubes with falling amounts of substance.

The nature of data set [2]: Far-UV CD, helicity from molar ellipticity at 222 nm. The following applies: 5 °C. Format: physicochemical. How it is done:
Spectra were collected on a Jasco J810 spectropolarimeter (Jasco, Tokyo, Japan) interfaced with a Peltier unit. Far-UV measurements were performed with samples placed in quartz cells with a 0.1 cm path length (Hellma, Kruibeke, Belgium), with a response time of 2 s, a band width of 1 nm, and a scan velocity of 50 nm/min. For all peptides, a wide range of concentrations (10–50 µM) was used to determine whether either the shape or the intensity of the spectra was concentration-dependent. None of those features changed in the concentration range explored. The experiments in aqueous solution were acquired at 5 °C in Tris buffer (50 mM, pH 7.0). Raw ellipticity was converted to molar ellipticity, [Θ], from which the fraction of helical populations was determined as previously described. For the experiments in the presence of each protein (repeated three times), the same concentration used in the fluorescence experiments was used, and the experimental set-up was the same as described above for the isolated peptides.

A short description of data set [3]: Translational diffusion NMR (DOSY). The data set is classed as physicochemical. As for the experimental part: (b) Translational diffusion NMR (DOSY): Peptide concentrations were the same as those used in the 1D-^1H-NMR spectra. Translational self-diffusion measurements were performed with the pulsed-gradient spin-echo sequence in the presence of 100% D2O. The following relationship existed between the translational self-diffusion coefficient, D, and the delays used during experiment acquisition:(2) I/I0=−exp(DγH2δ^2G^2(Δ−δ/3−τ/2)) where I is the peak intensity of a particular resonance (or a group of them) at any gradient strength; I0 is the maximum peak intensity of the same resonance(s) at the smallest gradient strength (that is, at 2% of the total power of the gradient coil); D is the translational self-diffusion constant (in cm^2 s^−1); δ is the duration (in s) of the gradient; G is the gradient strength (in T cm^−1); ∆ is the time (in s) between the gradients; γH is the gyromagnetic constant of the proton (in rad s^−1 T^−1); and τ is the recovery delay between the bipolar gradients (100 µs in our experiments). The gradient strength (G) was varied in 16 lineal steps, between 2 and 95% of the total power of the gradient coil of the probe. The gradient strength was calibrated by using the value of D for the residual proton water line in a sample containing 100% D2O placed in a 5 mm tube [42]. Data were plotted as I/I0 versus G^2, and the exponential factor of the curve was:(3) DγH2δ^2(Δ−δ/3−τ/2) from which D can be obtained. The duration of the gradient (δ) was 2.25 ms, and the time between the two gradients (∆) was set to 200 ms. The signal from the methyl groups between 1.1 and 0.70 ppm were used for integration of the intensity. A final concentration of 1% of dioxane was added to each peptide; the hydrodynamic radius, Rh, of each peptide was obtained for comparison by assuming that the Rh of dioxane was 2.12 Å [42]. The DOSY experiment was repeated twice with fresh samples for each peptide.

For data set [4] the following is noted: aqueous solution; cited from earlier work. An excerpt:
Streptomyces is an actinomycete, Gram-positive organism with high content of G + C base pairs in its genome. We have carried out an extensive description of the structures and conformational stabilities of HPr^sc (O50515) and EI (EI^sc) (Q9KZP1) to understand their binding in the PTS cascade. We have also characterized the interaction of EI^sc with wild-type HPr^sc and that of the phosphorylated species, as well as that of the N-terminal domain of EI^sc (EIN^sc) with intact HPr^sc. We have also shown that the peptide comprising residues Ala9-Gly3 ...

Broadly, the Kd is a measure of binding affinity in units of concentration. What is called MIC is the lowest concentration found to suppress growth. A low value points to greater potency. Turning to “Ac-GWAEGLHARPASIFVRAATATG-NH2 [Wild-type]”, the Kd on EIN^sc was 10 µM. The substance also registered an MIC in data set [1] of 40 µM. In addition, the “[Θ]^222 (value in parentheses)” value in data set [2] (50 mM Tris pH 7.0) is −612.44 deg cm^2 dmol^−1. For the same substance, the “Helicity (%)” value in data set [2] (50 mM Tris pH 7.0, from [Θ]^222 assuming −39,500 deg cm^2 dmol^−1 for a fully formed α-helix) stood at 1.6%. Also, in data set [3] (DOSY, 10 °C, 100% D2O, 70-120 µM peptide, fitting errors, repeated twice), the “D (translational diffusion coefficient)” value was 1.95 ± 0.03 cm^2 s^−1 × 10^6. Besides, in data set [3] (from comparison with the Rh of dioxane (2.12 Å)), the “Rh (in parentheses, from DOSY)” value stood at 11 ± 1 Å. For the same substance, in data set [4], the helical population entry is “about 7%”.

The record behind these values is publication PMC8509676, “Residual Helicity at the Active Site of the Histidine Phosphocarrier, HPr, Modulates Binding Affinity to Its Natural Partners” (International Journal of Molecular Sciences, 2021).
